Experimental findings from patent publication US8906904B2, “Alkoxy pyrazoles as soluble guanylate cyclase activators” (Boehringer Ingelheim International GmbH, priority 2012, dated 2014) are described below.

≈ marks a conversion by molar mass, not a printed value.

One data set in a line: Assessment of solubility (McIlvaine buffers, 24 h shake, UPLC-UV). The note with it: pH 2.2, aqueous buffer, kinetic from dmso stock. In kind it is physicochemical. The procedure, abridged: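 Compounds from 10 mM DMSO stocks were shaken for 24 h at room temperature in McIlvaine buffers at pH 2.2, 4.5 and 6.8 (2.5% v/v DMSO final), then filtered. Filtrates were quantified by UPLC-UV at 254 nm against a 50:50 acetonitrile/water reference assumed fully dissolved, as a single determination.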
`COc1c(C(=O)O)cnn1-c1cccc(-c2cccc(C)c2OCc2ccc3c(c2C)CCN(C2CCCOC2)C3)n1` (stereo not drawn) [Compound 238] yielded a solubility at 24 h of 77 µg/mL (≈ 135 µM).

For the molecule `COc1c(C(=O)O)cnn1-c1cccc(-c2cccc(C)c2OCc2cc(C)c3c(c2)CCN(CC2(C)COC2)C3)n1` [Compound 239], the concentration in solution (solubility at 24 h) came to 91 µg/mL (≈ 160 µM).

`COc1c(C(=O)O)cnn1-c1cccc(-c2cccc(C)c2OCc2cc(C)c3c(c2)CCN(CC2COCCO2)C3)n1` (stereo not drawn) [Compound 240] displayed a solubility at 24 h of 92 µg/mL (≈ 157 µM).

On to `CCOc1c(C(=O)O)cnn1-c1cccc(-c2cccc(C)c2OCc2cc(C)c3c(c2)CCN(C2CCOC2)C3)n1` (stereo not drawn) [Compound 241], for which the concentration in solution (solubility at 24 h) was 100 µg/mL (≈ 176 µM).

`COc1c(C(=O)O)cnn1-c1cccc(-c2cccc(C)c2OCc2cc(C)c3c(c2)CCN(C2CCOC2)C3)n1` (stereo not drawn) [Compound 242] showed a solubility at 24 h of 110 µg/mL (≈ 198 µM).

`CCOc1c(C(=O)O)cnn1-c1cccc(-c2cccc(C)c2OCc2cc(C)c3c(c2)CCN(CC2COCCO2)C3)n1` (stereo not drawn) [Compound 243]: the solubility at 24 h turned out to be 100 µg/mL (≈ 167 µM).

`COCC(C)N1CCc2cc(COc3c(C)cccc3-c3cccc(-n4ncc(C(=O)O)c4OC)n3)cc(C)c2C1` (stereo not drawn) [Compound 244] came in with a solubility at 24 h of 120 µg/mL (≈ 216 µM).

Take `CCOc1c(C(=O)O)cnn1-c1cccc(-c2cccc(C)c2OCc2ccc3c(c2)CCCN(C2CCCOC2)C3)n1` (stereo not drawn) [Compound 245]: the solubility at 24 h was determined as 100 µg/mL (≈ 172 µM).

Regarding `COc1c(C(=O)O)cnn1-c1cccc(-c2cccc(C)c2OCc2ccc3c(c2)CN(CC2COCCO2)C3)n1` (stereo not drawn) [Compound 247], the concentration in solution (solubility at 24 h) was 90 µg/mL (≈ 162 µM).

`CCc1cc(COc2c(C)cccc2-c2cccc(-n3ncc(C(=O)O)c3OC)n2)cc2c1CN(C1CCOCC1)CC2` [Compound 248] displayed a solubility at 24 h of 94 µg/mL (≈ 161 µM).

For the molecule `CCc1cc(COc2c(C)cccc2-c2cccc(-n3ncc(C(=O)O)c3OC)n2)cc2c1CN(C1COC1)CC2` [Compound 249], the solubility at 24 h was found to be 94 µg/mL (≈ 169 µM).

`COc1c(C(=O)O)cnn1-c1cccc(-c2cccc(C)c2OCc2cc(C#N)c3c(c2)CCN(C2CCOCC2)C3)n1` [Compound 250]: the concentration in solution (solubility at 24 h) came to 110 µg/mL (≈ 190 µM).

As to `COc1c(C(=O)O)cnn1-c1cccc(-c2cccc(C)c2OCc2ccc3c(c2F)CCN([C@H]2CCOC2)C3)n1` [Compound 251], the solubility at 24 h came out at 100 µg/mL (≈ 179 µM).

`COc1c(C(=O)O)cnn1-c1cccc(-c2cccc(C)c2OCc2ccc3c(c2F)CCN([C@@H]2CCOC2)C3)n1` [Compound 252] registered a solubility at 24 h of 94 µg/mL (≈ 168 µM).

Consider `COc1c(C(=O)O)cnn1-c1cccc(-c2cccc(C)c2OCc2cc(F)c3c(c2)CCN([C@@H]2CCOC2)C3)n1` [Compound 253], for which the concentration in solution (solubility at 24 h) was 100 µg/mL (≈ 179 µM).

Molecule `COc1c(C(=O)O)cnn1-c1cccc(-c2cccc(C)c2OCc2cc(F)c3c(c2)CCN([C@H]2CCOC2)C3)n1` [Compound 254] registered a solubility at 24 h of 100 µg/mL (≈ 179 µM).

Still in this data set, the particulars now being: pH 4.5, aqueous buffer, kinetic from dmso stock.
Molecule `COc1c(C(=O)O)cnn1-c1cccc(-c2cccc(C)c2OCc2ccc3c(c2C)CCN(C2CCCOC2)C3)n1` (stereo not drawn) [Compound 238] came in with a solubility at 24 h of 55 µg/mL (≈ 96.7 µM).

Regarding `COc1c(C(=O)O)cnn1-c1cccc(-c2cccc(C)c2OCc2cc(C)c3c(c2)CCN(CC2(C)COC2)C3)n1` [Compound 239], the concentration in solution (solubility at 24 h) was 71 µg/mL (≈ 125 µM).

Turning to `COc1c(C(=O)O)cnn1-c1cccc(-c2cccc(C)c2OCc2cc(C)c3c(c2)CCN(CC2COCCO2)C3)n1` (stereo not drawn) [Compound 240], the concentration in solution (solubility at 24 h) came to 69 µg/mL (≈ 118 µM).

For the molecule `CCOc1c(C(=O)O)cnn1-c1cccc(-c2cccc(C)c2OCc2cc(C)c3c(c2)CCN(C2CCOC2)C3)n1` (stereo not drawn) [Compound 241], the solubility at 24 h was 81 µg/mL (≈ 142 µM).

The molecule `COc1c(C(=O)O)cnn1-c1cccc(-c2cccc(C)c2OCc2cc(C)c3c(c2)CCN(C2CCOC2)C3)n1` (stereo not drawn) [Compound 242] came in with a solubility at 24 h of 79 µg/mL (≈ 142 µM).

In turn, `CCOc1c(C(=O)O)cnn1-c1cccc(-c2cccc(C)c2OCc2cc(C)c3c(c2)CCN(CC2COCCO2)C3)n1` (stereo not drawn) [Compound 243] showed a solubility at 24 h of 82 µg/mL (≈ 137 µM).

In turn, `COCC(C)N1CCc2cc(COc3c(C)cccc3-c3cccc(-n4ncc(C(=O)O)c4OC)n3)cc(C)c2C1` (stereo not drawn) [Compound 244] showed a solubility at 24 h of 99 µg/mL (≈ 178 µM).

`CCOc1c(C(=O)O)cnn1-c1cccc(-c2cccc(C)c2OCc2ccc3c(c2)CCCN(C2CCCOC2)C3)n1` (stereo not drawn) [Compound 245] gave a solubility at 24 h of 79 µg/mL (≈ 136 µM).

In the case of `COc1c(C(=O)O)cnn1-c1cccc(-c2cccc(C)c2OCc2ccc3c(c2)CN(CC2COCCO2)C3)n1` (stereo not drawn) [Compound 247], the solubility at 24 h came out at 75 µg/mL (≈ 135 µM).

Take `CCc1cc(COc2c(C)cccc2-c2cccc(-n3ncc(C(=O)O)c3OC)n2)cc2c1CN(C1CCOCC1)CC2` [Compound 248]: the solubility at 24 h worked out at 75 µg/mL (≈ 129 µM).

As to `CCc1cc(COc2c(C)cccc2-c2cccc(-n3ncc(C(=O)O)c3OC)n2)cc2c1CN(C1COC1)CC2` [Compound 249], the concentration in solution (solubility at 24 h) was 67 µg/mL (≈ 121 µM).

With `COc1c(C(=O)O)cnn1-c1cccc(-c2cccc(C)c2OCc2cc(C#N)c3c(c2)CCN(C2CCOCC2)C3)n1` [Compound 250], the solubility at 24 h is 81 µg/mL (≈ 140 µM).

As to `COc1c(C(=O)O)cnn1-c1cccc(-c2cccc(C)c2OCc2ccc3c(c2F)CCN([C@H]2CCOC2)C3)n1` [Compound 251], the solubility at 24 h was determined as 72 µg/mL (≈ 129 µM).

For the molecule `COc1c(C(=O)O)cnn1-c1cccc(-c2cccc(C)c2OCc2ccc3c(c2F)CCN([C@@H]2CCOC2)C3)n1` [Compound 252], the solubility at 24 h was 73 µg/mL (≈ 131 µM).

For `COc1c(C(=O)O)cnn1-c1cccc(-c2cccc(C)c2OCc2cc(F)c3c(c2)CCN([C@@H]2CCOC2)C3)n1` [Compound 253], the concentration in solution (solubility at 24 h) was 75 µg/mL (≈ 134 µM).

Molecule `COc1c(C(=O)O)cnn1-c1cccc(-c2cccc(C)c2OCc2cc(F)c3c(c2)CCN([C@H]2CCOC2)C3)n1` [Compound 254] yielded a solubility at 24 h of 64 µg/mL (≈ 115 µM).

The data set is the same for the next values; noted with them: pH 6.8, aqueous buffer, kinetic from dmso stock.
Consider `COc1c(C(=O)O)cnn1-c1cccc(-c2cccc(C)c2OCc2ccc3c(c2C)CCN(C2CCCOC2)C3)n1` (stereo not drawn) [Compound 238], for which the solubility at 24 h was 52 µg/mL (≈ 91.4 µM).

The molecule `COc1c(C(=O)O)cnn1-c1cccc(-c2cccc(C)c2OCc2cc(C)c3c(c2)CCN(CC2(C)COC2)C3)n1` [Compound 239] displayed a solubility at 24 h of 72 µg/mL (≈ 127 µM).

The molecule `COc1c(C(=O)O)cnn1-c1cccc(-c2cccc(C)c2OCc2cc(C)c3c(c2)CCN(CC2COCCO2)C3)n1` (stereo not drawn) [Compound 240] came in with a solubility at 24 h of 67 µg/mL (≈ 115 µM).

`CCOc1c(C(=O)O)cnn1-c1cccc(-c2cccc(C)c2OCc2cc(C)c3c(c2)CCN(C2CCOC2)C3)n1` (stereo not drawn) [Compound 241]: the concentration in solution (solubility at 24 h) came to 84 µg/mL (≈ 148 µM).

As for `COc1c(C(=O)O)cnn1-c1cccc(-c2cccc(C)c2OCc2cc(C)c3c(c2)CCN(C2CCOC2)C3)n1` (stereo not drawn) [Compound 242], the solubility at 24 h amounted to 78 µg/mL (≈ 141 µM).

`CCOc1c(C(=O)O)cnn1-c1cccc(-c2cccc(C)c2OCc2cc(C)c3c(c2)CCN(CC2COCCO2)C3)n1` (stereo not drawn) [Compound 243] had a solubility at 24 h of 81 µg/mL (≈ 135 µM).

With `COCC(C)N1CCc2cc(COc3c(C)cccc3-c3cccc(-n4ncc(C(=O)O)c4OC)n3)cc(C)c2C1` (stereo not drawn) [Compound 244], the solubility at 24 h was determined as 98 µg/mL (≈ 176 µM).

As for `CCOc1c(C(=O)O)cnn1-c1cccc(-c2cccc(C)c2OCc2ccc3c(c2)CCCN(C2CCCOC2)C3)n1` (stereo not drawn) [Compound 245], the concentration in solution (solubility at 24 h) was 92 µg/mL (≈ 158 µM).

On to `COc1c(C(=O)O)cnn1-c1cccc(-c2cccc(C)c2OCc2ccc3c(c2)CN(CC2COCCO2)C3)n1` (stereo not drawn) [Compound 247], for which the solubility at 24 h amounted to 71 µg/mL (≈ 128 µM).

Take `CCc1cc(COc2c(C)cccc2-c2cccc(-n3ncc(C(=O)O)c3OC)n2)cc2c1CN(C1CCOCC1)CC2` [Compound 248]: the concentration in solution (solubility at 24 h) came to 74 µg/mL (≈ 127 µM).

Consider `CCc1cc(COc2c(C)cccc2-c2cccc(-n3ncc(C(=O)O)c3OC)n2)cc2c1CN(C1COC1)CC2` [Compound 249], for which the solubility at 24 h amounted to 93 µg/mL (≈ 168 µM).

The molecule `COc1c(C(=O)O)cnn1-c1cccc(-c2cccc(C)c2OCc2cc(C#N)c3c(c2)CCN(C2CCOCC2)C3)n1` [Compound 250] returned a solubility at 24 h of 86 µg/mL (≈ 148 µM).

Take `COc1c(C(=O)O)cnn1-c1cccc(-c2cccc(C)c2OCc2ccc3c(c2F)CCN([C@H]2CCOC2)C3)n1` [Compound 251]: the concentration in solution (solubility at 24 h) came to 77 µg/mL (≈ 138 µM).

`COc1c(C(=O)O)cnn1-c1cccc(-c2cccc(C)c2OCc2ccc3c(c2F)CCN([C@@H]2CCOC2)C3)n1` [Compound 252] showed a solubility at 24 h of 62 µg/mL (≈ 111 µM).

For `COc1c(C(=O)O)cnn1-c1cccc(-c2cccc(C)c2OCc2cc(F)c3c(c2)CCN([C@@H]2CCOC2)C3)n1` [Compound 253], the solubility at 24 h was 81 µg/mL (≈ 145 µM).

Take `COc1c(C(=O)O)cnn1-c1cccc(-c2cccc(C)c2OCc2cc(F)c3c(c2)CCN([C@H]2CCOC2)C3)n1` [Compound 254]: the concentration in solution (solubility at 24 h) came to 80 µg/mL (≈ 143 µM).

The term solubility denotes the dissolved amount per volume that the medium holds. A high value points to a readily soluble substance.
